Measured values taken from patent US9586951B2 (FUJIFILM Corporation, priority 2013, dated 2017).

Key:
ATM = target: T1, ATM (Homo sapiens, UniProt Q13315); assay: ATM inhibition test (phosphorylation of Chk2 generated by ionizing radiation, AlphaScreen SureFire); format: cell-based; conditions: phosphorylated Chk2 in NCI-H460 cells, ionizing radiation 8Gy, 1 hour after test compound treatment; read-out: ATM inhibitory activity
T1 construct: detecting phosphorylation of Chk2 in a human non-small cell lung cancer cell line NCI-H460 (ATCC company); host or cells: NCI-H460 human non-small cell lung cancer cells
T1 sequence (Q13315 whole entry): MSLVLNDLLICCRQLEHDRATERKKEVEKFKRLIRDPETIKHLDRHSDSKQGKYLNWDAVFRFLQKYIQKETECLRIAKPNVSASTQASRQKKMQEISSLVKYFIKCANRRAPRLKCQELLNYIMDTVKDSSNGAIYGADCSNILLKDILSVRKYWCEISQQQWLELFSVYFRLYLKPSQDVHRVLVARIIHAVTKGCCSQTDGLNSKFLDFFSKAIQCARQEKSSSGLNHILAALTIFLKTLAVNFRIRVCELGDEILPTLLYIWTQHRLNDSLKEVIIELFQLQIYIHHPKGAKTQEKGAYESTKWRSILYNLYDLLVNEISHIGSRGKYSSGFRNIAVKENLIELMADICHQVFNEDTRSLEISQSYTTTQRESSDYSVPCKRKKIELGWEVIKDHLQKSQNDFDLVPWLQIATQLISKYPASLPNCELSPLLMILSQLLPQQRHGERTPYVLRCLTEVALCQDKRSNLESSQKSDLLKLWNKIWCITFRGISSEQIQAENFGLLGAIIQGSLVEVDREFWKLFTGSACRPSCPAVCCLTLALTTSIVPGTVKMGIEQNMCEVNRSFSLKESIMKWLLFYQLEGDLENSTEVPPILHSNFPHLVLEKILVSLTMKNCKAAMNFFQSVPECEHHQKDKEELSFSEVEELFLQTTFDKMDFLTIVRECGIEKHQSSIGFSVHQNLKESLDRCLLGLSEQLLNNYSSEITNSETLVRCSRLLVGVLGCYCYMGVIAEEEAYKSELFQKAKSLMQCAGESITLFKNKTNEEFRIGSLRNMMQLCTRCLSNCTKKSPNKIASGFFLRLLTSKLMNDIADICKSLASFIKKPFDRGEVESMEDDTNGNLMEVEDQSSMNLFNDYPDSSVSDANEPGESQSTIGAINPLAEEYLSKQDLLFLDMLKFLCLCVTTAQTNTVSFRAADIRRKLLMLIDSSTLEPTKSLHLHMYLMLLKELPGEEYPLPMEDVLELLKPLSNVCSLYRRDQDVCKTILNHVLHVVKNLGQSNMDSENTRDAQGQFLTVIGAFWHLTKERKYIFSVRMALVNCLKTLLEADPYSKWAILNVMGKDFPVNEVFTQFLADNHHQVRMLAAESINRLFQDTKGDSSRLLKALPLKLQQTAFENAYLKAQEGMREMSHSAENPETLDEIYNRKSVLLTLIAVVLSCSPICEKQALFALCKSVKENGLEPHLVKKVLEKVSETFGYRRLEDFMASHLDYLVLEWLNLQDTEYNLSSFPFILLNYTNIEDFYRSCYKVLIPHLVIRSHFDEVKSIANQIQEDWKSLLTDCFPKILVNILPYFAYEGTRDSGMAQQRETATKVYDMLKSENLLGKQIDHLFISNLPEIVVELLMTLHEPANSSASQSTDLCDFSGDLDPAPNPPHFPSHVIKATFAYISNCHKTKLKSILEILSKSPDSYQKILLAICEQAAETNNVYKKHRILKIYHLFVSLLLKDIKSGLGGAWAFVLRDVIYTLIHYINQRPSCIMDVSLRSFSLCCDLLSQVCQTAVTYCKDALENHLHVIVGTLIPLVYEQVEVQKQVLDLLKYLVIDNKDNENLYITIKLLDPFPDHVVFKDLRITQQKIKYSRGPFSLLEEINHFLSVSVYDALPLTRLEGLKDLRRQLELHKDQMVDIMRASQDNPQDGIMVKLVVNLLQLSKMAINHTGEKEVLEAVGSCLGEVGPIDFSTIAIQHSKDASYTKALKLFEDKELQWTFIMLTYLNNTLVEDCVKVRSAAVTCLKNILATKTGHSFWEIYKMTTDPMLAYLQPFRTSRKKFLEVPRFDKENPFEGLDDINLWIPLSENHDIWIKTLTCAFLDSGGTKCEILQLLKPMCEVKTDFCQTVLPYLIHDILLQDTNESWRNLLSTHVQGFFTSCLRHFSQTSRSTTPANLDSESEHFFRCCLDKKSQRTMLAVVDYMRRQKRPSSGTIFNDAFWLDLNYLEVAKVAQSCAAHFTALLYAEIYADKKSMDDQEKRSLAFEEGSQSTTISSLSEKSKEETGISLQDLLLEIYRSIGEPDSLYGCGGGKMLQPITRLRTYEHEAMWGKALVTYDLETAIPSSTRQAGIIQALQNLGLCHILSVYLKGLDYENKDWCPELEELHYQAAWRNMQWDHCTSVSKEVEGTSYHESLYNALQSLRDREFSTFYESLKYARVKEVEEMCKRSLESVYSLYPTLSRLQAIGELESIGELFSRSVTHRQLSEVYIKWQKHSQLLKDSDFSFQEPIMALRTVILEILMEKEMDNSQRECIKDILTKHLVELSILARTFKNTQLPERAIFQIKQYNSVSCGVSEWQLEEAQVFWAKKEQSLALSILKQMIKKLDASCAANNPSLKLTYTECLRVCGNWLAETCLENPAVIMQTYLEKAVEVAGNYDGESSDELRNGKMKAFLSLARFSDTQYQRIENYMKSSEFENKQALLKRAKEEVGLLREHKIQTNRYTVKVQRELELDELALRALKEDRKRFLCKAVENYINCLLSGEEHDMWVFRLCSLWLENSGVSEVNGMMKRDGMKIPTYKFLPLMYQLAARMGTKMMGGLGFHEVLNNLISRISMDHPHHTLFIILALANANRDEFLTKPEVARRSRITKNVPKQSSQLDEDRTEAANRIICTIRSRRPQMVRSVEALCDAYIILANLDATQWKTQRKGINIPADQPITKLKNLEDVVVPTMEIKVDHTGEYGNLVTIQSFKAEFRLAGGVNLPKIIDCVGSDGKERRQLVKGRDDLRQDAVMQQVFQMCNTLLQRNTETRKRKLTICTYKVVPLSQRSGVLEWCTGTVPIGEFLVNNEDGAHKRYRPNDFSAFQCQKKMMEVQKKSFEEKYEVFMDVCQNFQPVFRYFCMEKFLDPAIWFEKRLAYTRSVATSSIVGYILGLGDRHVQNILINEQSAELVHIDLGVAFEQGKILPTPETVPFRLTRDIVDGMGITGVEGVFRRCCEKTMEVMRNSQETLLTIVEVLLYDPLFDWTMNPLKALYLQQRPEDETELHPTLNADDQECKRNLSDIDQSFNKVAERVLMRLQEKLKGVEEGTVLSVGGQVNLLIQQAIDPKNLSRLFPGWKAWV
Method in brief: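 Human NCI-H460 lung cancer cells were treated with compound for 1 h, then irradiated at 8Gy and incubated 1 h at 37° C. Phospho-Chk2 was quantified by AlphaScreen SureFire; inhibition % was normalised between irradiated untreated and non-irradiated untreated wells.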

[1] = system: human non-small cell lung cancer cell line NCI-H460; assay: Cell proliferation inhibition test by sensitivity-enhancing to ionizing radiation (Cell Titer Glo); format: cell-based; conditions: Homo sapiens, concentration in which SER became 2, NCI-H460 cells, ionizing radiation 2 Gy, cultured 120 hour
Method: A human non-small cell lung cancer cell line NCI-H460 (ATCC company) was adjusted so as to be 2×10^3 cells/mL in a RPMI-1640 medium containing penicillin/streptomycin and FBS having a final concentration of 10%, and this was seeded by 100 μL per well in 96-well CellBIND® plates (Corning International Inc.). After 24 hours, the medium of cells was replaced with 100 μL of a medium including serially diluted liquid of the test compound or DMSO having a final concentration of 0.1%. 30 minutes after the medium was replaced, half of the plates were irradiated with ionizing radiation 2 Gy (Faxitron Bioptics, LLC, RX-650 type). The cells of the plates irradiated with ionizing radiation and the plates not being irradiated with ionizing radiation were cultured at 37° C. for 120 hour in 5% CO2. After a Cell Titer Glo reaction liquid of an equal volume was added to each well, the amount of luminescence was measured, according to the instruction book of Cell Titer Glo (Promega Corporation). Since the amount of luminescence is proportional to the ATP concentration in cells, the amount of luminescence was used as an indicator of the number of viable cells. Sensitivity-enhancing effects (SER) to ionizing radiation by the test compound was calculated by the following equation. SER=(amount of luminescence of wells including DMSO having a final concentration of 0.1% in the plates irradiated with ionizing radiation×amount of luminescence of wells including a compound in the plates not being irradiated with ionizing radiation)/(amount of luminescence of wells including the test compound in the plates irradiated with ionizing radiation×amount of luminescence of wells including DMSO having a final concentration of 0.1% in the plates not being irradiated with ionizing radiation)
SER at each compound concentration was plotted by nonlinear regression fit (FitModel (205)) by a sigmoidal dose-response equation using XLfit software (IDBS), and the concentration (SER2) in which SER became 2 was calculated.

| SMILES | IC50 (ATM) [nM] | SER2 (concentration at which the radiation sensitivity-enhancement ratio reaches 2) ([1]; NCI-H460, 120 h) [nM] | SER2 (concentration at which the radiation sensitivity-enhancement ratio reaches 2) [1] [nM] |
| --- | --- | --- | --- |
| COCCOCC(Nc1ccc2c(c1)Sc1cccc(-c3cc(N4CCOCC4)cc(=O)[nH]3)c1S2)c1ncc(C)cn1 (stereo not shown) [Example 1-12-98, 6-(7-((2-(2-Methoxyethoxy)-1-(5-methylpyrimidin-2-yl)ethyl)amino)thianthren-1-yl)-4-morpholino pyridin-2(1H)-one] | < 100 | 100 to 500 |  |
| O=c1cc(N2CCOCC2)cc(-c2cccc3c2Oc2ccc(NCc4cncc(N5CCC5)c4)cc2C3)[nH]1 [Example 2-2-69, 6-(7-(((5-(Azetidin-1-yl)pyridin-3-yl)methyl)amino)-9H-xanthen-4-yl)-4-morpholino pyridin-2(1H)-one] | < 100 | 500 to 2000 |  |
| O=c1cc(N2CCOCC2)cc(-c2cccc3c2Sc2ccc(NC4CCCC4N4CCOCC4)cc2S3)[nH]1 (single isomer, unassigned) [Example 1-16-1-2, 4-morpholino-6-(7-((2-morpholinocyclopentyl)amino)thianthren-1-yl)pyridin-2(1H)-one] | < 100 | < 100 |  |
| Cc1cnc(C(C)Nc2ccc3c(c2)Sc2cccc(-c4cc(N5CCOCC5)cc(=O)[nH]4)c2S3)nc1 (single isomer, unassigned) [Example 1-12-139-1, 6-(7-((1-(5-methylpyrimidin-2-yl)ethyl)amino)thianthren-1-yl)-4-morpholinopyridin-2(1H)-one] | < 100 | < 100 |  |
| O=c1cc(N2CCOCC2)cc(-c2cccc3c2Oc2ccc(NCc4cncc(Cl)c4)cc2C3)[nH]1 [Example 2-2-12, 6-(7-(((5-Chloropyridin-3-yl)methyl)amino)-9H-xanthen-4-yl)-4-morpholino pyridin-2 (1H)-one] | < 100 | 100 to 500 |  |
| COc1cccc(CNc2ccc3c(c2)Sc2cccc(-c4cc(N5CCOCC5)cc(=O)[nH]4)c2O3)n1 [Example 4-8-18, 6-(8-(((6-Methoxypyridin-2-yl)methyl)amino)phenoxathiin-4-yl)-4-morpholino pyridin-2 (1H)-one] | < 100 | 100 to 500 |  |
| COC[C@H](CN1C[C@@H](C)O[C@@H](C)C1)Nc1ccc2c(c1)Sc1cccc(-c3cc(N4CCOCC4)cc(=O)[nH]3)c1S2 [Example 1-46-11, 6-(7-(((S)-1-((2S,6R)-2,6- Dimethylmorpholino)-3-methoxypropan-2-yl)amino)thianthren-1-yl)-4-morpholino pyridin-2(1H)-one] | < 100 | < 100 |  |
| O=c1cc(N2CCOCC2)cc(-c2cccc3c2Sc2ccc(NC4CCN(C5CC5)CC4)cc2S3)[nH]1 [Example 1-24-18, 6-(7-((1-Cyclopropylpiperidin-4-yl)amino)thianthren-1-yl)-4-morpholino pyridin-2(1H)-one] | < 100 | 100 to 500 |  |
| COc1ncc(CNc2ccc3c(c2)Cc2cccc(-c4cc(N5CCOCC5)cc(=O)[nH]4)c2O3)cn1 [Example 2-2-14, 6-(7-(((2-Methoxypyrimidin-5-yl)methyl)amino)-9H-xanthen-4-yl)-4-morpholino pyridin-2(1H)-one] | < 100 | 100 to 500 |  |
| COc1cncc(CN2CCC(Nc3ccc4c(c3)Cc3cccc(-c5cc(N6CCOCC6)cc(=O)[nH]5)c3O4)CC2)n1 [Example 2-28-23, 6-(7-((1-((6-Methoxypyrazin-2-yl)methyl)piperidin-4-yl)amino)-9H-xanthen-4-yl)-4-morpholino pyridin-2(1H)-one] | < 100 | 500 to 2000 |  |
| O=c1cc(N2CCOCC2)cc(-c2cccc3c2Oc2ccc(NCc4cccc(Cl)n4)cc2S3)[nH]1 [Example 4-4-20, 6-(8-(((6-Chloropyridin-2-yl)methyl)amino)phenoxathiin-4-yl)-4-morpholino pyridin-2(1H)-one] | < 100 | 100 to 500 |  |
| Cc1cnc(C(C)Nc2ccc3c(c2)Sc2cccc(-c4cc(N5CCOCC5)cc(=O)[nH]4)c2S3)nc1 (stereo not shown) [Example 1-12-70, 6-(7-((1-(5-Methylpyrimidin-2-yl)ethyl)amino)thianthren-1-yl)-4-morpholino pyridin-2(1H)-one] | < 100 | < 100 |  |
| Cc1ccnc(CNc2ccc3c(c2)Cc2ccc(F)c(-c4cc(N5CCOCC5)cc(=O)[nH]4)c2O3)c1 [Example 2-46-5, 6-(3-Fluoro-7-(((4-methylpyridin-2-yl)methyl)amino)-9H-xanthen-4-yl)-4-morpholinopyridin-2(1H)-one] | < 100 | 100 to 500 |  |
| COc1ccnc(CNc2ccc3c(c2)Sc2cccc(-c4cc(N5CCOCC5)cc(=O)[nH]4)c2S3)c1 [Example 1-12-4] | < 100 | 100 to 500 |  |
| Cc1ccc(C(Nc2ccc3c(c2)Sc2cccc(-c4cc(N5CCOCC5)cc(=O)[nH]4)c2S3)C(C)C)nc1 (stereo not shown) [Example 1-12-121, 6-(7-((2-Methyl-1-(5-methylpyridin-2-yl)propyl)amino)thianthren-1-yl)-4-morpholino pyridin-2(1H)-one] | < 100 | 100 to 500 |  |
| CNc1ccc(CNc2ccc3c(c2)Cc2cccc(-c4cc(N5CCOCC5)cc(=O)[nH]4)c2O3)cn1 [Example 2-2-7, 6-(7-(((6-(Methylamino)pyridin-3-yl)methyl)amino)-9H-xanthen-4-yl)-4-morpholino pyridin-2 (1H)-one] | 100 to 500 | 100 to 500 |  |
| Cc1ccnc(C(C)Nc2ccc3c(c2)Sc2cccc(-c4cc(N5CCOCC5)cc(=O)[nH]4)c2S3)n1 (single isomer, unassigned) [Example 1-12-144-1, 6-(7-((1-(4-methylpyrimidin-2-yl)ethyl)amino)thianthren-1-yl)-4-morpholinopyridin-2(1H)-one] | < 100 | < 100 |  |
| Cc1cnc(C(CCN2CCOCC2)Nc2ccc3c(c2)Sc2cccc(-c4cc(N5CCOCC5)cc(=O)[nH]4)c2S3)cn1 (stereo not shown) [Example 1-50-1, 6-(7-((1-(5-methylpyrazin-2-yl)-3-morpholinopropyl)amino)thianthren-1-yl)-4-morpholinopyridin-2(1H)-one] | < 100 | < 100 |  |
| CNc1ncc(CNc2ccc3c(c2)Sc2cccc(-c4cc(N5CCOCC5)cc(=O)[nH]4)c2O3)cn1 [Example 4-4-13, 6-(8-(((2-(Methylamino)pyrimidin-5-yl)methyl)amino)phenoxathiin-4-yl)-4-morpholino pyridin-2(1H)-one] | < 100 | 100 to 500 |  |
| Cc1ccnc(C(CF)Nc2ccc3c(c2)Sc2cccc(-c4cc(N5CCOCC5)cc(=O)[nH]4)c2S3)n1 (stereo not shown) [Example 1-12-89, 6-(7-((2-Fluoro-1-(4-methylpyrimidin-2-yl)ethyl)amino)thianthren-1-yl)-4-morpholino pyridin-2(1H)-one] | < 100 | 100 to 500 |  |
| O=c1cc(N2CCOCC2)cc(-c2cccc3c2Sc2ccc(NC(CF)CN4CCOCC4)cc2S3)[nH]1 (racemic) [Example 1-41-1-1, 6-(7-((1-Fluoro-3-morpholinopropan-2-yl)amino)thianthren-1-yl)-4-morpholinopyridin-2(1H)-one] | < 100 |  | < 100 |
| COc1cncc(CNc2ccc3c(c2)Cc2cccc(-c4cc(N5CCOCC5)cc(=O)[nH]4)c2O3)n1 [Example 2-13-9, 6-(7-(((6-Methoxypyrazin-2-yl)methyl)amino)-9H-xanthen-4-yl)-4-morpholino pyridin-2(1H)-one] | < 100 | 500 to 2000 |  |
| COc1ccc(CNc2ccc3c(c2)Sc2cccc(-c4cc(N5CCOCC5)cc(=O)[nH]4)c2O3)nc1 [Example 4-8-17, 6-(8-(((5-Methoxypyridin-2-yl)methyl)amino)phenoxathiin-4-yl)-4-morpholino pyridin-2(1H)-one] | < 100 | 100 to 500 |  |
